Test results taken from PMC9540525 (Cancer, 2022).

How the values were obtained:
[1] = system: MMD gene expression in peripheral blood; experiment: Phase 1 study: MMD gene expression in peripheral blood; assay type: in vivo, human; settings: dose expansion, 60 mg once per week
[2] = Phase 1 study: treatment duration, modification, exposure and disposition; assay type: in vivo, human; settings: dose expansion, NEN cohort, n=16
[3] = system: progastrin‐releasing peptide [pro‐GRP]; experiment: Phase 1 study: serum progastrin-releasing peptide; assay type: in vivo, human; settings: dose expansion, NENs
[4] = dose escalation, cited from earlier work

COc1ccc(-c2c(-c3ccc(C#N)c(F)c3)nc(N3CCC(N)CC3)n(C)c2=O)cc1F [CC‐90011]
downregulation in MMD gene expression in the peripheral blood [1]: ≥ 50%
≥1 dose interruption due to AE [2]: 10 (63%) n (%)
patients in whom pro-GRP levels decreased [3]: 15 of 16
patients with a pro-GRP decrease >30% [3]: 11 of 16
dose-limiting toxicity [4]: Thrombocytopenia was the only dose‐limiting toxicity reported
maximum tolerated dose ([4]; once per week): 80 mg
nontolerated dose ([4]; once per week): 120 mg
recommended phase 2 dose (RP2D) ([4]; once per week): 60 mg
